# Source: ChEMBL document CHEMBL3991601, “The target landscape of clinical kinase drugs” (Science, 2017)
# pKd: −log10 of the molar value. Activity calls are given as the source filed them. For most assays here, no stated cut-off is given here; in the data, actives have a measured Kd and inactives only a lower limit.
# Columns and labels:
# [1] = biological target: Tyrosine-protein kinase FRK (Homo sapiens, UniProt P42685)
# [2] = biological target: Casein kinase I isoform alpha (Homo sapiens, UniProt P48729)
# [3] = biological target: Epithelial discoidin domain-containing receptor 1 (Homo sapiens, UniProt Q08345)
# [4] = biological target: T1, Mitogen-activated protein kinase kinase kinase kinase 3 (Homo sapiens, UniProt Q8IVH8)
# T1 sequence (Q8IVH8 whole entry): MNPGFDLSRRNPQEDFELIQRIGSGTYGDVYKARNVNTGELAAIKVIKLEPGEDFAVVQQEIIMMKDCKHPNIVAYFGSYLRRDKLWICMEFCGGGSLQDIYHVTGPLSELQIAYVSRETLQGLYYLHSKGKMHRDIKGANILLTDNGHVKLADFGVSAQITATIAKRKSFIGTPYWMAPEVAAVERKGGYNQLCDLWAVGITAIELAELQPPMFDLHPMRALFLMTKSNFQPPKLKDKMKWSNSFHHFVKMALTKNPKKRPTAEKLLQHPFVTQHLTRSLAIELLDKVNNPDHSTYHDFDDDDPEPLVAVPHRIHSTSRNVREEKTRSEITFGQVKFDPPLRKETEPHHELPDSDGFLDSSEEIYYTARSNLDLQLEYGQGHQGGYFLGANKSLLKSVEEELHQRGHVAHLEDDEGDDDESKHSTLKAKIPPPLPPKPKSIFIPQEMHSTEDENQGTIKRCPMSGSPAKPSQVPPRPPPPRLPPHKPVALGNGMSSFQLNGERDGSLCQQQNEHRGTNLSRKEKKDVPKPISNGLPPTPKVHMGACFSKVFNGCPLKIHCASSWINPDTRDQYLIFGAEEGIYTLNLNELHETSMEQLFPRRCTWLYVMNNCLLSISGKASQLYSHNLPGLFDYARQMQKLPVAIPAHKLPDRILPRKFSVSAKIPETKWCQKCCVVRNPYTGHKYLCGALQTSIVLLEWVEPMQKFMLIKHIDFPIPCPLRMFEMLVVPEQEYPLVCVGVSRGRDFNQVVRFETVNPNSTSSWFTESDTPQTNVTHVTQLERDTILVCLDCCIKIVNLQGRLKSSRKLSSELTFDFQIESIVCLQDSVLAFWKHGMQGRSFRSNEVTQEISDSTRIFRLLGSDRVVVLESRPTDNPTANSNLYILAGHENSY
# [5] = biological target: 26S proteasome regulatory subunit 6B (Homo sapiens, UniProt P43686)
# [6] = biological target: T2, Membrane-associated tyrosine- and threonine-specific cdc2-inhibitory kinase (Homo sapiens, UniProt Q99640)
# T2 sequence (Q99640 whole entry): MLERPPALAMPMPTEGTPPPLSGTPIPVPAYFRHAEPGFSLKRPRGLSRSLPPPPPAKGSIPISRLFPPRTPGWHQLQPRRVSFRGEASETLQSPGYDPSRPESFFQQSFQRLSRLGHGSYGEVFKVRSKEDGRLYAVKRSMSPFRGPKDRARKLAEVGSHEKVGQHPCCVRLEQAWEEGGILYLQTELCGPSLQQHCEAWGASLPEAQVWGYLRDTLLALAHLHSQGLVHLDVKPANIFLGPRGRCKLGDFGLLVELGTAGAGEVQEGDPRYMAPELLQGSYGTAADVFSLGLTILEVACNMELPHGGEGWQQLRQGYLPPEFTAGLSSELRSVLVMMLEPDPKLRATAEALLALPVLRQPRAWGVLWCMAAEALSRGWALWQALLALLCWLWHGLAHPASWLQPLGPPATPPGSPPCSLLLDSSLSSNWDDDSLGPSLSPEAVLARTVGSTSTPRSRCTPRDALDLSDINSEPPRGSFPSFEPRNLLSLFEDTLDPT
# [7] = biological target: Hepatocyte growth factor receptor (Homo sapiens, UniProt P08581)
# [8] = biological target: Tyrosine-protein kinase BTK (Homo sapiens, UniProt Q06187)
# [9] = biological target: Non-receptor tyrosine-protein kinase TYK2 (Homo sapiens, UniProt P29597)
# [10] = biological target: T3, Dual specificity mitogen-activated protein kinase kinase 5 (Homo sapiens, UniProt Q13163)
# T3 sequence (Q13163 whole entry): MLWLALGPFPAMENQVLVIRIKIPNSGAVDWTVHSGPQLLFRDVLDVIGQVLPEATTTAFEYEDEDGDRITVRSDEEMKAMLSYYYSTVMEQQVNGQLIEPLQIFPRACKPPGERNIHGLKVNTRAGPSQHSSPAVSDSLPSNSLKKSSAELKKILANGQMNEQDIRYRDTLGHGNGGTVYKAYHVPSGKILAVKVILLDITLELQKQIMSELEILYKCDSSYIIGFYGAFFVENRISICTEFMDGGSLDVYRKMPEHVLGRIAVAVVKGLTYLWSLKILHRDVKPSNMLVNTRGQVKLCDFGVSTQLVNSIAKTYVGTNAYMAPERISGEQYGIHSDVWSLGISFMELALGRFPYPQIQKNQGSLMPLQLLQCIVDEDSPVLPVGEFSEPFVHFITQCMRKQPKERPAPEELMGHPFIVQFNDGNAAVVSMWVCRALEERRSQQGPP
# Septin-9 = biological target: T4, Septin-9 (Homo sapiens, UniProt Q9UHD8)
# T4 sequence (Q9UHD8 whole entry): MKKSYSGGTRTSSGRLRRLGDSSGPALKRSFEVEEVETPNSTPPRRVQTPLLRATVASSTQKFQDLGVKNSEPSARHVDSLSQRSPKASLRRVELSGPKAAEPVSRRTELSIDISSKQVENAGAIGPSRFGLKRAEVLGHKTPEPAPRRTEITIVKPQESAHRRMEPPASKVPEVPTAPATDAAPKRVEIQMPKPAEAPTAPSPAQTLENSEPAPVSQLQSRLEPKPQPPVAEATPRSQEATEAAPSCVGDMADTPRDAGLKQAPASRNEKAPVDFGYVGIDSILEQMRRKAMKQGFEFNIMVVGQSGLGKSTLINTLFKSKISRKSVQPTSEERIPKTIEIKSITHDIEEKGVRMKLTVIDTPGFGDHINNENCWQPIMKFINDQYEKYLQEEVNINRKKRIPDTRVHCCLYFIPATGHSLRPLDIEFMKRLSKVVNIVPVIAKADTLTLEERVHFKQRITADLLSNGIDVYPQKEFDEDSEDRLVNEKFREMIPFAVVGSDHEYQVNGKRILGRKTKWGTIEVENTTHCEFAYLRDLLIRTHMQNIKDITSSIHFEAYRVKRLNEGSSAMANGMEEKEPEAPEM
# Sequence of Hepatocyte growth factor receptor (P08581 whole entry): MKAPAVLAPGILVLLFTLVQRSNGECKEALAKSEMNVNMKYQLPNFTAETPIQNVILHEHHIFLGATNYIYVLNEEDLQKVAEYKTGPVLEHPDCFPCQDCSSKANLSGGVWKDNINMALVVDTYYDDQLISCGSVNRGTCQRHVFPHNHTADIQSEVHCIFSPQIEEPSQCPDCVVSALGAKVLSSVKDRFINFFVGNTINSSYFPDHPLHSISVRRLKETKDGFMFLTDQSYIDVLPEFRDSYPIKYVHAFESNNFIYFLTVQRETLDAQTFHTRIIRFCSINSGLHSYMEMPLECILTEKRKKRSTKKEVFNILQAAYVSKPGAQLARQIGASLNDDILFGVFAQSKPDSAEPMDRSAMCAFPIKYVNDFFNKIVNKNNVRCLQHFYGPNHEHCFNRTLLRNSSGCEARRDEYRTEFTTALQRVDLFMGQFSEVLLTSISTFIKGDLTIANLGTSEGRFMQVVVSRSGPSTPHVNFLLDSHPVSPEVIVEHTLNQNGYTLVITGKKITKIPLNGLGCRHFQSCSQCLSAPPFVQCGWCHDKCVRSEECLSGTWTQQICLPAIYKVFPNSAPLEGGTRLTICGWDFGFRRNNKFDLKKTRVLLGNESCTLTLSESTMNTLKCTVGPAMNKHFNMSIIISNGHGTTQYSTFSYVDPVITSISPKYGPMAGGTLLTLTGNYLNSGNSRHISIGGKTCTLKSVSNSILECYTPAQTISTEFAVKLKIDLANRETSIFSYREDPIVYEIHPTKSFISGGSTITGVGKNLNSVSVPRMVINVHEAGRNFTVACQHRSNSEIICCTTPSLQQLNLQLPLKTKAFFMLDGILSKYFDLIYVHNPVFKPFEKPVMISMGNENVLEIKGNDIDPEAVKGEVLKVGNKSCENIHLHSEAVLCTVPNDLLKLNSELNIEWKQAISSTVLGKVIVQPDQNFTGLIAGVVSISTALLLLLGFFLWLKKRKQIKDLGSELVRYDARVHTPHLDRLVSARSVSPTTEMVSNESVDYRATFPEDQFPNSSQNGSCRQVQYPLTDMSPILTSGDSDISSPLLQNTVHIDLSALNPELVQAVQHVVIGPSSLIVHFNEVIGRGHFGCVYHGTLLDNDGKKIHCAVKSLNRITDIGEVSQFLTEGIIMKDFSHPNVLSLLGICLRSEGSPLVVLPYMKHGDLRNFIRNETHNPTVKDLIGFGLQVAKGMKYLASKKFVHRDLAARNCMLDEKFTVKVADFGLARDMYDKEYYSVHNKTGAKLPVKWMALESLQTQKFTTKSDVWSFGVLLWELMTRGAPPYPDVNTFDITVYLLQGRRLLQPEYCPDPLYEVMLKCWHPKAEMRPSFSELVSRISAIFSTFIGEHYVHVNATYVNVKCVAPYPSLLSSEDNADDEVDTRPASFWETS
# Sequence of Tyrosine-protein kinase FRK (P42685 whole entry, canonical isoform): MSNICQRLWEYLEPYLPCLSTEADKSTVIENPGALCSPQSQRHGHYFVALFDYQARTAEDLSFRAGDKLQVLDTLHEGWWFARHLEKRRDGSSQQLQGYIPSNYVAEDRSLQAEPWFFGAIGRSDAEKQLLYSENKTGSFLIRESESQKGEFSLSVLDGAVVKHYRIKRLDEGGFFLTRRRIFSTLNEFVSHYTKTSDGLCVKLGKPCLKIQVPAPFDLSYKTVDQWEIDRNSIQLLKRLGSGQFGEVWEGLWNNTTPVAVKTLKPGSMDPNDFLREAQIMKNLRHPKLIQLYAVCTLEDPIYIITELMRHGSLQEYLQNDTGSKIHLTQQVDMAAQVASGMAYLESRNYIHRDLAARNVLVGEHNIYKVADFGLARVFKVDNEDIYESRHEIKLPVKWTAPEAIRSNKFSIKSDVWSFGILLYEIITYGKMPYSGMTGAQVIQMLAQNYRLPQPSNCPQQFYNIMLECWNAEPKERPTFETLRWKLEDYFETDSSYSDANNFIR
# Sequence of Casein kinase I isoform alpha (P48729 whole entry, the tested form may be a part, canonical isoform): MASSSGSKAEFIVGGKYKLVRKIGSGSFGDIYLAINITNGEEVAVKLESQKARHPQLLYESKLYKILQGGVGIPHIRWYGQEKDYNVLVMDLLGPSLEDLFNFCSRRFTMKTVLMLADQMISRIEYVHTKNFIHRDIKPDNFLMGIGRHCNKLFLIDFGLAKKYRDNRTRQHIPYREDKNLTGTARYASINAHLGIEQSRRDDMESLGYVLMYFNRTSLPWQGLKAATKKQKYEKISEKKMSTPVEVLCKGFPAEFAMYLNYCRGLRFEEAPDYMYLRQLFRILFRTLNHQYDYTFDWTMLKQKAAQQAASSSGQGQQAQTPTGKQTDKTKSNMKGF
# Sequence of Non-receptor tyrosine-protein kinase TYK2 (P29597 whole entry): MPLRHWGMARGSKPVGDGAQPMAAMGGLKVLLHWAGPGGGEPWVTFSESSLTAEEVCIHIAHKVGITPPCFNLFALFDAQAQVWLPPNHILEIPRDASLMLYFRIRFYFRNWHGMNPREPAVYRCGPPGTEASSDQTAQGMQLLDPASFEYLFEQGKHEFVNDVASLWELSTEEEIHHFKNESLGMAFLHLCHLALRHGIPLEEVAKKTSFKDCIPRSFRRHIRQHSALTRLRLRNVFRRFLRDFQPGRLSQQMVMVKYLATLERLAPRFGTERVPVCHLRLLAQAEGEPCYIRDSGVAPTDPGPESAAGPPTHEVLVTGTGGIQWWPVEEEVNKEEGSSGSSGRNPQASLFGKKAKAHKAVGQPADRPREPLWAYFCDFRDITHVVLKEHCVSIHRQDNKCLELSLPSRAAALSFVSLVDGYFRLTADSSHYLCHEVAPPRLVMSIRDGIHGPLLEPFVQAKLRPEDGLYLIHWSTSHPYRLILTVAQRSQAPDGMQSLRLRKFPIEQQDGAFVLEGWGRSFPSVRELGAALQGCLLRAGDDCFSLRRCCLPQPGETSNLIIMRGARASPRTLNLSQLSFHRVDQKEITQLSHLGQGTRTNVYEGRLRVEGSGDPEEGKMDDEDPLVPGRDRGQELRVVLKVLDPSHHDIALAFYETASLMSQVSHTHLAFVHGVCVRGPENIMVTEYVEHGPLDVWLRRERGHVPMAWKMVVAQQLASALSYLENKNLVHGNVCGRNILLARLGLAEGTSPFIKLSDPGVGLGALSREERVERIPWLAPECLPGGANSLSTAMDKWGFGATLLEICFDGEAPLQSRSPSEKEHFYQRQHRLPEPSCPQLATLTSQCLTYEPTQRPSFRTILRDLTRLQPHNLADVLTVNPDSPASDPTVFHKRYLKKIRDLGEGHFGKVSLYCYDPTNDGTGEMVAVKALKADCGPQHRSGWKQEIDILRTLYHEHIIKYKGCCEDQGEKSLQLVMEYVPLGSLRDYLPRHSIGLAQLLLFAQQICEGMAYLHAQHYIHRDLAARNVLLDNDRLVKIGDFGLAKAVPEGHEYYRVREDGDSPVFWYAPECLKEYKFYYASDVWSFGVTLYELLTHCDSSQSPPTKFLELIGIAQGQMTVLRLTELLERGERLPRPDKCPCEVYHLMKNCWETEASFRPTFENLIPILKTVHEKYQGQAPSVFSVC
# Sequence of Tyrosine-protein kinase BTK (Q06187 whole entry): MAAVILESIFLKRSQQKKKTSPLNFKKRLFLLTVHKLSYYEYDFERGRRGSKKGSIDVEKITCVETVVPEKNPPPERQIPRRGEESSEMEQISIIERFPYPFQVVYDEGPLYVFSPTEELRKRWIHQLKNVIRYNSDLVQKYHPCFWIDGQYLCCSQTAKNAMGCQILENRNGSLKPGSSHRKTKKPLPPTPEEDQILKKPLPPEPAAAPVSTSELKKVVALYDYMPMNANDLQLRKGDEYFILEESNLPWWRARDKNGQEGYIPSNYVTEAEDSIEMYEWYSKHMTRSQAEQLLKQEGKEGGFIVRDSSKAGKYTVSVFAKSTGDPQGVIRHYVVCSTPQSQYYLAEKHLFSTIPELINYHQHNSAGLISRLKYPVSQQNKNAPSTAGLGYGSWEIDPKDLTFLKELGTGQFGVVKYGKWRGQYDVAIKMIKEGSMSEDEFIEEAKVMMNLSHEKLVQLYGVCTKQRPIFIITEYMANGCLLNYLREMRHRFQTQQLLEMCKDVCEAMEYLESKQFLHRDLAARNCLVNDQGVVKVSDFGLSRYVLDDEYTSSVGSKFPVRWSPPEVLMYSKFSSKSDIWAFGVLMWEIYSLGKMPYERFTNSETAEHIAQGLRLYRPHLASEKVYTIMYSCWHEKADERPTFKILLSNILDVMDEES
# Sequence of 26S proteasome regulatory subunit 6B (P43686 whole entry): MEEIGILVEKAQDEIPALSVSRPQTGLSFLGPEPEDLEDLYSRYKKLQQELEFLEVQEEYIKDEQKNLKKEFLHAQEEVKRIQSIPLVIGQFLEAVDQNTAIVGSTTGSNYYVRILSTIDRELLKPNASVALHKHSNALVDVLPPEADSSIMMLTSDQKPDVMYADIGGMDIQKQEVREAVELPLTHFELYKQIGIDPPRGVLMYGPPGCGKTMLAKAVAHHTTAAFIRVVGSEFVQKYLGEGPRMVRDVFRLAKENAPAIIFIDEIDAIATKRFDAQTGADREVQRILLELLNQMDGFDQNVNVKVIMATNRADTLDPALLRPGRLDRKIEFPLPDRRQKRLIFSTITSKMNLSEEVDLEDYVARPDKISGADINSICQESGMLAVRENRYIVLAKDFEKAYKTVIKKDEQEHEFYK
SMILES,Kd [1],Kd [2],Kd [3],Kd [4],Kd [5],Kd [6],pKd [7],Kd [8],Kd [9],Kd [10],Kd (Septin-9),pKd [4],Kd [7],pKd [8]
C[C@@H](Oc1cc(C(=O)Nc2ccc(C(=O)N3CCN(C)CC3)cc2)nnc1N)c1c(Cl)ccc(F)c1Cl,> 30 µM (inactive),> 30 µM (inactive),> 30 µM (inactive),> 30 µM (inactive),> 30 µM (inactive),> 30 µM (inactive),7.49,> 30 µM (inactive),> 30 µM (inactive),> 30 µM (inactive),,,,
C[C@H]1CNCCCN1S(=O)(=O)c1cccc2cncc(F)c12,> 30 µM (inactive),> 30 µM (inactive),> 30 µM (inactive),,> 30 µM (inactive),> 30 µM (inactive),,> 30 µM (inactive),> 30 µM (inactive),> 30 µM (inactive),> 30 µM (inactive),5.49,> 30 µM (inactive),
CC(=O)c1cnc2ccc(-c3cc(Cl)c(O)c(Cl)c3)nc2c1N[C@H]1CC[C@H](CN(C)C)CC1,> 30 µM (inactive),0.931 µM (active),0.515 µM (active),> 30 µM (inactive),> 30 µM (inactive),> 30 µM (inactive),,0.361 µM (active),> 30 µM (inactive),0.058 µM (active),> 30 µM (inactive),,> 30 µM (inactive),
CCNC(=O)C#Cc1ccc2c(c1)NC(=O)/C2=C(\Nc1ccc(CN(C)C)cc1)c1ccccc1,0.736 µM (active),> 30 µM (inactive),0.469 µM (active),> 30 µM (inactive),> 30 µM (inactive),> 30 µM (inactive),,0.588 µM (active),> 30 µM (inactive),0.177 µM (active),> 30 µM (inactive),,> 30 µM (inactive),
C=CC(=O)N1CCC[C@H](n2c(=O)n(-c3ccc(Oc4ccccc4)cc3)c3c(N)ncnc32)C1,> 30 µM (inactive),> 30 µM (inactive),> 30 µM (inactive),> 30 µM (inactive),> 30 µM (inactive),> 30 µM (inactive),,0.004 µM (active),> 30 µM (inactive),> 30 µM (inactive),> 30 µM (inactive),,> 30 µM (inactive),
COCc1c(-c2ccc(NC(=O)Nc3cc(C(F)(F)F)ccc3F)c(F)c2)c2c(N)ncnn2c1CN1CCOCC1,1.86 µM (active),> 30 µM (inactive),0.314 µM (active),> 30 µM (inactive),> 30 µM (inactive),> 30 µM (inactive),,> 30 µM (inactive),> 30 µM (inactive),> 30 µM (inactive),> 30 µM (inactive),,> 30 µM (inactive),
Nc1ncnc2c1c(-c1cccc(OCc3ccccc3)c1)cn2[C@H]1C[C@@H](CN2CCC2)C1 [AEW-541],> 30 µM (inactive),,> 30 µM (inactive),> 30 µM (inactive),> 30 µM (inactive),> 30 µM (inactive),,> 30 µM (inactive),> 30 µM (inactive),0.146 µM (active),> 30 µM (inactive),,> 30 µM (inactive),
O=C(Nc1nc2cccc(-c3ccc(CN4CCS(=O)(=O)CC4)cc3)n2n1)C1CC1 [FILGOTINIB],> 30 µM (inactive),> 30 µM (inactive),> 30 µM (inactive),> 30 µM (inactive),> 30 µM (inactive),> 30 µM (inactive),,> 30 µM (inactive),,> 30 µM (inactive),> 30 µM (inactive),,> 30 µM (inactive),
Cc1cccc(-c2nn3c(c2-c2ccnc4ccc(C(N)=O)cc24)CCC3)n1 [GALUNISERTIB],> 30 µM (inactive),,> 30 µM (inactive),> 30 µM (inactive),> 30 µM (inactive),> 30 µM (inactive),,> 30 µM (inactive),> 30 µM (inactive),> 30 µM (inactive),> 30 µM (inactive),,> 30 µM (inactive),
CNC(=O)c1cc(Oc2ccc(NC(=O)Nc3cc(C(C)(C)C)nn3-c3ccc4ncccc4c3)c(F)c2)ccn1 [REBASTINIB],,> 30 µM (inactive),0.272 µM (active),> 30 µM (inactive),> 30 µM (inactive),> 30 µM (inactive),,1.22 µM (active),> 30 µM (inactive),> 30 µM (inactive),> 30 µM (inactive),,0.126 µM (active),
CN1CCN(CCOc2cc(OC3CCOCC3)c3c(Nc4c(Cl)ccc5c4OCO5)ncnc3c2)CC1 [SARACATINIB],2.33 µM (active),> 30 µM (inactive),4.4 µM (active),> 30 µM (inactive),> 30 µM (inactive),,,10.2 µM (active),> 30 µM (inactive),,> 30 µM (inactive),,> 30 µM (inactive),
Cc1cc(Nc2ncnc3ccc(NC4=NC(C)(C)CO4)cc23)ccc1Oc1ccn2ncnc2c1 [TUCATINIB],> 30 µM (inactive),,> 30 µM (inactive),> 30 µM (inactive),> 30 µM (inactive),> 30 µM (inactive),,> 30 µM (inactive),> 30 µM (inactive),> 30 µM (inactive),> 30 µM (inactive),,> 30 µM (inactive),
CC(C)c1cc(CNc2nc(Nc3cc(C4CC4)[nH]n3)cc(N3CCN(C)CC3)n2)on1 [XL-228],> 30 µM (inactive),> 30 µM (inactive),,0.526 µM (active),> 30 µM (inactive),> 30 µM (inactive),,,> 30 µM (inactive),> 30 µM (inactive),> 30 µM (inactive),,> 30 µM (inactive),4.80
C[C@@H](N)c1ccc(C(=O)Nc2ccnc3[nH]ccc23)cc1 [Y-39983],> 30 µM (inactive),,> 30 µM (inactive),> 30 µM (inactive),> 30 µM (inactive),> 30 µM (inactive),,> 30 µM (inactive),> 30 µM (inactive),> 30 µM (inactive),> 30 µM (inactive),,> 30 µM (inactive),
